Test results taken from patent USRE48253E1, “Methotrexate adjuvants to reduce toxicity and methods for using the same” (Tosk, Inc., priority 2008, dated 2020).

Columns and labels:
Drosophila melanogaster = test: Fly Study I: protection from MTX-induced lethality; assay type: in vivo
Method: In this study, Drosophila melanogaster eggs (50 eggs per vial) were treated with either 0.005 mg TK-112690+0.4 mg MTX (Group 1), 0.01 mg TK-112690+0.4 mg MTX (Group 2), 0.04 mg TK-112690+0.4 mg MTX (Group 3), 0.1 mg TK-112690+0.4 mg MTX (Group 4), 0.4 mg MTX alone (Group 5) or saline blank (Group 6). Two vials of eggs for each dose group were evaluated for viability (viable flies plus pupae).
The efficacy of cancer chemotherapy can be improved if agents are available to reduce the adverse events associated with treatment with cytotoxic agents. To this end, Drosophila melanogaster (commonly know as the fruit fly) is an ideal organism to screen chemical compounds for such side-effect-reducing agents. This study is aimed at finding a dose of a 2,2′-anhydropyrimidine test article that protects against MTX-induced lethality in insects.
Increasing amounts of a 2,2′-anhydropyrimidine test article (typically 0.03 to 0.1 mg) are mixed in an aqueous solution with 0.3 (or 0.4) mg MTX. Four milliliters (mL) of a 2,2′-anhydropyrimidine test article+MTX solutions are added to an appropriate amount of instant fly medium. Fruit fly eggs are added to a 2,2′-anhydropyrimidine test article+MTX treated medium and incubated for up to 31 days. After the 31 day incubation, each assay is scored by the number of mature fly and pupae per vial.
The assays are set up in clear sterile polystyrene narrow diameter vials from Applied Scientific (Hampton, N.H.). Vials are stored in trays and incubated in a darkened 25° C. incubator.
Reagents and materials used are: 50 mg/mL MTX in H2O (pH 8), 20 mg/mL of the 2,2′-anhydropyrimidine test article in H2O, water, sterile polystyrene narrow diameter vials from Applied Scientific, Instant Drosophila Food Medium, Oregon-R Drosophila melanogaster, 25° C. incubator, and 15 mL polystyrene conical tubes
Each assay is performed in a separate fly vial. […] Pre-measured amounts of instant drosophila medium are added to each assay to achieve optimal hydration level. […] Assays are scored by the number of dead pupae or adult flies per vial.

[1] = test system: Wild-type (Oregon-R) Drosophila melanogaster; test: Fly Study II: MTX lethality in wild-type flies; assay type: in vivo; details: for MTX dose with lethal effects in wild-type flies: orally in food admix, scored 15 days after initiation
Method: Embryos of UPase knockout (19519) Drosophila melanogaster were orally exposed to a dose range of MTX doses in food admix. Embryos of Wild-type (Oregon-R) were orally exposed to the same dose range of MTX in presence and absence of 0.04 mg TK-112690. Scoring was based on life or death 15 days after initiation of MTX exposure. […] Wild-type D. melanogaster are sensitive to lethal effects of ≥0.1 mg MTX.
The aim of this study was to evaluate the lethal effects of a range (0.001, 0.01, 0.05, 0.1, 0.2, 0.4 mg) of doses of orally fed MTX in wild-type (Ore-R) and UPase mutant Drosophila melanogaster. Embryos of UPase knockout (19519) Drosophila melanogaster were orally exposed to a dose range of MTX (0.001, 0.01, 0.05, 0.1, 0.2, 0.4 mg) in food admix. Embryos of Wild-type (Oregon-R) were orally exposed to the same dose range of MTX in presence and absence of 0.04 mg TK-112690. Scoring was based on life or death 15 days after initiation of MTX exposure.

CCRF-CEM human tumors = test: Mouse Study IV: xenograft with CCRF-CEM implants; assay type: in vivo, SCID mice
Method: In this study, n=10 SCID mice per dose group were treated with CCRF-CEM human tumors and the tumors allowed to grow to a size of approximately 100 mg. Then the animals were treated by intraperitoneal (ip) injection with either control 20% DMSO/80% PBS (1×/day)×5 days (Group 1), MTX 7.5 mg/kg/injection (1×/day)×5 days (Group 2) or MTX 7.5 mg/kg/inj. (1×/day)×5 days+TK-112690 30 mg/kg/inj.±3 hrs (group 3). The Figure provides tumor sizes in each of the 3 groups on Day 27 of the study.
A xenograft study was performed to analyze the effect of TK-112690. administration on the in vivo efficacy of MTX against a human cancer. Human CCRF-CEM (T-ALL) cells were implanted subcutaneously into SCID mice. Tumor volumes were recorded on a regular basis, and once tumors had become established, treatment was given. […] All treatments were given ip, and TK-112690 was give 3 hours prior to and 3 hours after MTX administration.

C57BL/6 mice = test: Mouse Study III: MTX-induced infection measured as WBC counts; assay type: in vivo; details: Day 11
Method: C57BL/6 mice (n=10/dose group), treated i.p. 50 mg/kg MTX on Day 1, 2, 3, 4, 6 and 8 along with 60 mg/kg TK-1126901.p. 3 hr±MTX followed by single daily doses TK-112690 on days not treated with MTX. On Day 11, the animals were sacrificed and hematology performed on the resulting blood. Group 1=saline control, Group 2=MTX control and Group 3=MTX+TK-112690.
Several parameters have been examined in an effort to develop a model to confirm the protection from mucositis observed in the LPS/MTX assay. On examination of complete blood counts (CBCs), consistently elevated levels of white blood cell counts (WBCs) are observed when mice are treated with MTX (FIG. 4). This increase is not observed in animals that are also treated with TK-112690 (FIG. 4). […] LPS is a large molecule on the outer membrane of Gram negative bacteria. Tissues exposed to LPS express pro-inflammatory cytokines such as TNF-α and […]. Increases in these cytokines due to exposure of tissues to LPS generate an immune response which, in turn, increases WBCs.
For the study whose data are presented in FIG. 4, C57BL/6 mice (n=10/dose group) were treated i.p. with 50 mg/kg MTX on Day 1, 2, 3, 4, 6 and 8 along with 60 mg/kg TK-1126901.p. 3 hr±MTX followed by single daily doses TK-112690 on days not treated with MTX. On Day 11, the animals were bled and hematology performed on the resulting blood samples. […]

Cc1cn2c(nc1=O)O[C@H]1[C@H](O)[C@@H](CO)O[C@H]12 [TK-112690, 2,2′-anhydro-5-methyluridine]
protection against MTX-induced lethality in the Fly model (Drosophila melanogaster; with MTX 0.4 mg, TK-112690 0.005 to 0.1 mg): highly significant
methotrexate dose from whose lethality protection is provided ([1]; 0.04 mg TK-112690): ≤ 0.4 mg
protection of wild-type flies from lethal effects of MTX ([1]; 0.04 mg TK-112690, MTX 0.001-0.4 mg): resistant to the lethal effects
tumor volume day 27, MTX+TK-112690 vs MTX (CCRF-CEM human tumors; TK-112690 30 mg/kg ip 3 hours prior to and after MTX 7.5 mg/kg): not significantly different
protection from MTX-induced mucositis measured as WBC counts (C57BL/6 mice; 60 mg/kg ip with MTX 50 mg/kg): protects from MTX-induced mucositis

CN(Cc1cnc2nc(N)nc(N)c2n1)c1ccc(C(=O)N[C@@H](CCC(=O)O)C(=O)O)cc1 [MTX, N-[4-[[(2,4-diamino-6-pteridinyl)methyl]methylamino]benzoyl]-L-glutamic acid, reference compound]
effect of MTX on lethality in the flies (Drosophila melanogaster; 0.4 mg MTX alone vs saline): highly significant
MTX dose with lethal effects in wild-type flies [1]: ≥ 0.1 mg
MTX dose with lethal effects in wild-type flies ([1]; listed as Methotrexate): 0.1 mg
tumor volume day 27, treatment vs saline (CCRF-CEM human tumors; MTX 7.5 mg/kg/injection ip (1×/day)×5 days): significantly different
systemic WBC (C57BL/6 mice; 50 mg/kg MTX ip Day 1, 2, 3, 4, 6 and 8): increases systemic WBC
